In patent publication US11198710B2, “Transgenic plant having herbicide resistance” (priority 2016, dated 2021):

Columns and labels:
[1] = system: wild-type rapeseed plants (variety: Westar); test: Rapeseed sensitivity test 2 (agar medium), wild type; type: in vivo, Brassica napus; conditions: 0.1 μM pyroxasulfone, 22° C., 2 weeks
Text: In order to investigate the extent of pyroxasulfone resistance of the transgenic rapeseed plants comprising the […] gene introduced therein compared to wild-type plants, the growth of rapeseed was examined in an agar medium containing pyroxasulfone. Wild-type rapeseed plants (variety: Westar) and transgenic rapeseed plants comprising the TaQ8GTC0 gene introduced therein were subjected to the growth inhibitory test in an agar medium, so as to examine the resistance thereof to pyroxasulfone.
The medium (1 liter) used in the test was composed of 1× Murashige-Skoog (MS) media (a bag), thiamin hydrochloride (3 μg/ml), nicotinic acid (5 μg/ml), pyridoxin hydrochloride (0.5 μg/ml), and 1% (w/v) sucrose. The composition was added to a 1-liter beaker, a pH was adjusted to 5.7, and the volume of the composition was adjusted to 1 liter, followed by the addition of 8 g (0.8%) of agar. Thereafter, the composition was autoclaved, the temperature was cooled to room temperature, and pyroxasulfone (acetone solution) at a given concentration was added. […]
The sensitivity of rapeseed was examined in agar media comprising pyroxasulfone (0.1 μM, 1 μM, 10 μM, and 100 μM). […] Values in the table in FIGS. 41 and 42 are expressed as the mean±standard deviation (n=4 to 5). Values in FIG. 43 are expressed as the means (n=4 to 5).

TaQ8GTB9 = test: Pyroxasulfone metabolizing activity based on fatty acid content in cultured rice cells; type: cell-based, wheat; conditions: cultured rice cells with TaQ8GTB9 gene; 10^−7M or 10^−6M pyroxasulfone, liquid culture 14 to 17 days
Procedure: The transgenic cultured rice cells thus prepared were used for liquid culture in the presence of pyroxasulfone. Pyroxasulfone was added to the liquid medium as an acetone solution. The final acetone concentration was 0.1%. When liquid culture was carried out, cultured rice cells transformed with KLB-279 (a plasmid comprising Act1p (rice actin 1 promoter)::sGFP::NOSt incorporated into the MCS of PalSelect R-4) were designated as the control samples. Liquid culture was carried out as described below. […]
Fatty acid was extracted using undecenoic acid (C11:1) as an internal standard. As analytical standards, Supelco FAME mix containing C14:0, C16:0, C16:1, C18:0, C18:1, C18:2, C18:3, C20:0, C22:0, C22:1, and C24:0 and other fatty acid methyl esters (C11:1, C15:0, C20:1, and C26:0) were used, and calibration curves thereof were prepared, followed by quantification. […] Quantitative and qualitative analyses were carried out as methyl esters, although fatty acid methyl esters were converted into fatty acids at the time of quantitative analysis. […]

cultured rice cells = conditions: culture in a pyroxasulfone-containing liquid medium; cited from earlier work

For `Cn1nc(C(F)(F)F)c(CS(=O)(=O)C2=NOC(C)(C)C2)c1OC(F)F` [Pyroxasulfone, 3-[5-(difluoromethoxy)-1-methyl-3-(trifluoromethyl)pyrazol-4-ylmethylsulfonyl]-4,5-dihydro-5,5-dimethyl-1,2-oxazole], the “inhibition ratio on foliage leaf development” value [1] was 8.4±1.4%, the “inhibition ratio on plant height” value [1] was 8.9±2.8% and the “pyroxasulfone metabolizing activity (C15:0 and VLCFA contents)” value (TaQ8GTB9) was “no pyroxasulfone metabolizing activity”. The “C15:0 (pentadecanoic acid) content” value (cultured rice cells) was “remarkably increased” and the “content of very-long-chain fatty acid (VLCFA)” value (cultured rice cells) was “drastically decreases”.
